Consider 1 compound from patent US11767536B2, “Method for obtaining glyphosate-resistant rice by site-directed nucleotide substitution” (Institute of Genetics and Developmental Biology, Chinese …, priority 2015, dated 2023).

The test system of experiment [1] is wild type rice (Oryza sativa L. japonica. cv. Nipponbare) plants. Put plainly: Glyphosate resistance verification in N6 culture medium, wild type rice plants. The format is in vivo. Conditions: N6 culture medium containing 1 mg/L glyphosate, recorded after 10 days. The method, then:
(§1) The three TIPS EPSPS site mutation lines (T0-1, T0-5 and T0-7) obtained from Example 4 and wild type rice (Oryza sativa L. japonica. cv. Nipponbare) plants were placed into an N6 culture medium containing 1 mg/L glyphosate, and cultured under the routine culture conditions. The resistance results were recorded after 10 days. Verification was carried out in more than 3 plants for each TIPS EPSPS site mutation line.

The subject of experiment [2] is TIPS EPSPS site mutation lines (T0-1, T0-5 and T0-7). Briefly: Glyphosate resistance verification in N6 culture medium, TIPS EPSPS site mutation lines. The note with it: N6 culture medium containing 1 mg/L glyphosate, recorded after 10 days, TIPS EPSPS mutant rice T0-1, T0-5, T0-7. The format is in vivo, Oryza sativa L. japonica. cv. Nipponbare. As for the experimental part:
as §1

`O=C(O)CNCP(=O)(O)O` [glyphosate]: the “resistance results (plant condition)” value is “chlorotic and wilting to die” in experiment [1]; “survived normally” in experiment [2].
